Patent publication US10597388B2, “Pyridazinone herbicides” (FMC CORPORATION, priority 2014, dated 2020)

Tests used:
Type in all cases: in vivo
[1] = system: foxtail, giant (giant foxtail, Setaria faberii); assay: Test A greenhouse herbicide test, pre- and postemergence
Summary of the method: (§1)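 Seeds sown in loam–sand blend got a preemergence directed soil spray of compound in non-phytotoxic solvent with surfactant. Postemergence treatment was given at 2–10 cm, one- to two-leaf stage. After ~10 d in greenhouse, injury was rated visually vs untreated controls, 0 (no effect) to 100 (complete control).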

[2] = system: barnyardgrass (Echinochloa crus-galli); assay: as above
Summary of the method: as §1

kochia (Kochia scoparia) = assay: as above
Summary of the method: as §1

[3] = system: ragweed (common ragweed, Ambrosia elatior); assay: as above
Summary of the method: as §1

[4] = system: ryegrass, Italian (Italian ryegrass, Lolium multiflorum); assay: as above
Summary of the method: as §1

corn (Zea mays) = assay: as above; details: Postemergence
Summary of the method: as §1

[5] = system: wheat (Triticum aestivum); assay: as above; details: Postemergence
Summary of the method: as §1

[6] = system: pigweed (Amaranthus retroflexus); assay: as above
Summary of the method: as §1

[7] = system: barnyardgrass (Echinochloa crus-galli); assay: Test C greenhouse herbicide test, pre- and postemergence
Source text: Seeds of plant species selected from blackgrass (Alopecurus myosuroides), ryegrass, Italian (Italian ryegrass, Lolium multiflorum), wheat (winter wheat, Triticum aestivum), galium (catchweed bedstraw, Galium aparine), corn (Zea mays), large crabgrass, large (large crabgrass, Digitaria sanguinalis), foxtail, giant (giant foxtail, Setaria faberii), johnsongrass (Sorghum halepense), lambsquarters (Chenopodium album), morningglory (Ipomoea coccinea), nutsedge, yellow (yellow nutsedge, Cyperus esculentus), pigweed (Amaranthus retroflexus), ragweed (common ragweed, Ambrosia elatior), soybean (Glycine max), barnyardgrass (Echinochloa crus-galli), oilseed rape (Brassica napus), waterhemp (common waterhemp, Amaranthus rudis), and velvetleaf (Abutilon theophrasti) were planted into a blend of loam soil and sand and treated preemergence with test chemicals formulated in a non-phytotoxic solvent mixture which included a surfactant.
At the same time, plants selected from these crop and weed species and also chickweed (common chickweed, Stellaria media), kochia (Kochia scoparia), and oat, wild (wild oat, Avena fatua), were planted in pots containing Redi-Earth® planting medium (Scotts Company, 14111 Scottslawn Road, Marysville, Ohio 43041) comprising spaghnum peat moss, vermiculite, wetting agent and starter nutrients and treated with postemergence applications of test chemicals formulated in the same manner. Plants ranged in height from 2 to 18 cm (1- to 4-leaf stage) for postemergence treatments. Treated plants and controls were maintained in a greenhouse for 13 to 15 d, after which time all species were compared to controls and visually evaluated. Plant response ratings, summarized in Table C, are based on a scale of 0 to 100 where 0 is no effect and 100 is complete control. A dash (-) response means no test result.

[8] = system: blackgrass (Alopecurus myosuroides); assay: Test A greenhouse herbicide test, postemergence
Summary of the method: (§2)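 Plants grown in loam soil/sand blend pots were treated postemergence at 2 to 10 cm height, one- to two-leaf stage, with formulated test chemicals. After approximately 10 d in a greenhouse, injury was rated visually against untreated controls on a 0 to 100 scale (0 no effect, 100 complete control).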

[9] = system: galium (catchweed bedstraw, Galium aparine); assay: Test A greenhouse herbicide test, postemergence
Summary of the method: as §2

[10] = Postemergence, 125 g ai/ha, 0 to 100 scale where 0 is no effect and 100 is complete control
[11] = Postemergence, 500 g ai/ha, visual rating after approx. 10 d, 0 to 100 scale (0 no effect, 100 complete control)
[12] = Preemergence, 125 g ai/ha, 0 to 100 scale where 0 is no effect and 100 is complete control
[13] = Preemergence, 500 g ai/ha, 0 to 100 scale where 0 is no effect and 100 is complete control
[14] = 125 g ai/ha, 0 to 100 scale where 0 is no effect and 100 is complete control
[15] = 500 g ai/ha, visual rating after approx. 10 d, 0 to 100 scale (0 no effect, 100 complete control)
[16] = Postemergence, 31 g ai/ha, scale 0 to 100 (0 no effect, 100 complete control)
[17] = Postemergence, 125 g ai/ha, scale 0 to 100, 0 is no effect, 100 is complete control
[18] = Postemergence, 250 g ai/ha, scale 0 to 100, 0 no effect, 100 complete control, 13 to 15 d
[19] = Preemergence, 31 g ai/ha, scale 0 to 100, 0 is no effect, 100 is complete control
[20] = Preemergence, 62 g ai/ha, scale 0 to 100, 0 is no effect, 100 is complete control
[21] = Preemergence, 125 g ai/ha, scale 0 to 100, 0 is no effect, 100 is complete control
[22] = Preemergence, 250 g ai/ha, scale 0 to 100 (0 no effect, 100 complete control)
[23] = postemergence, 62 g ai/ha, scale 0 to 100, 0 no effect, 100 complete control

Row | SMILES | Plant response rating, Foxtail, Giant [1, 10] | Plant response rating, Foxtail, Giant [1, 11] | Foxtail, Giant plant response rating [1, 12] | Plant response rating, Foxtail, Giant [1, 13] | Plant response rating, Barnyardgrass [2, 10] | Barnyardgrass plant response rating [2, 12] | Plant response rating, Barnyardgrass [2, 13] | Plant response rating, Kochia (kochia (Kochia scoparia); [10]) | Plant response rating, Kochia (kochia (Kochia scoparia); [11]) | Kochia plant response rating (kochia (Kochia scoparia); [12]) | Plant response rating, Kochia (kochia (Kochia scoparia); [13]) | Plant response rating, Ragweed [3, 10] | Plant response rating, Ragweed [3, 11] | Ragweed plant response rating [3, 12] | Plant response rating, Ragweed [3, 13] | Plant response rating, Ryegrass, Italian [4, 10] | Plant response rating, Ryegrass, Italian [4, 11] | Ryegrass, Italian plant response rating [4, 12] | Plant response rating, Ryegrass, Italian [4, 13] | Plant response rating, Corn (corn (Zea mays); [14]) | other results
1 | CCC(=O)Oc1c(C)nn(C)c(=O)c1-c1c(C)sc2ccc(Cl)cc12 [Compound 109] | 70 | 90 | 90 | 100 | 30 | 20 | 100 | 90 | 90 | 100 | 100 | 80 | 100 | 100 | 100 | 100 | 100 | 100 | 100 | 0 | Barnyardgrass plant response rating ([2]; Postemergence, 500 g ai/ha, 0 to 100 scale, 0 is no effect, 100 is complete control): 90; Plant response rating, Corn (corn (Zea mays); [15]): 30; Plant response rating, Wheat [5, 14]: 20; Plant response rating, Wheat [5, 15]: 30; Plant response rating, Pigweed [6, 10]: 90; Plant response rating, Pigweed [6, 11]: 90; Pigweed plant response rating [6, 12]: 100; Plant response rating, Pigweed [6, 13]: 100; Plant response rating, Barnyardgrass [7, 16]: 25; Plant response rating, Barnyardgrass [7, 17]: 55; Plant response rating, Barnyardgrass [7, 18]: 65; Plant response rating, Barnyardgrass [7, 19]: 10; Plant response rating, Barnyardgrass [7, 20]: 35; Plant response rating, Barnyardgrass [7, 21]: 70; Barnyardgrass plant response rating [7, 22]: 80; Barnyardgrass plant response rating [7, 23]: 30; Plant response rating, Blackgrass [8, 14]: 80; Blackgrass plant response rating ([8]; 500 g ai/ha, 0 to 100 scale, 0 is no effect, 100 is complete control): 90; Plant response rating, Galium [9, 14]: 100; Plant response rating, Galium [9, 15]: 100
2 | Cc1sc2ccc(Cl)cc2c1-c1c(OS(C)(=O)=O)c(Cl)nn(C)c1=O [Compound 114] | 70 | 90 | 40 | 90 | 20 | 30 | 80 | 30 | 60 | 30 | 100 | 70 | 80 | 80 | 90 | 90 | 90 | 80 | 90 | 0 | Plant response rating, Barnyardgrass [2, 11]: 90; Plant response rating, Corn (corn (Zea mays); [15]): 30; Plant response rating, Wheat [5, 14]: 20; Plant response rating, Wheat [5, 15]: 40; Plant response rating, Pigweed [6, 10]: 90; Plant response rating, Pigweed [6, 11]: 90; Pigweed plant response rating [6, 12]: 100; Plant response rating, Pigweed [6, 13]: 100; Plant response rating, Barnyardgrass [7, 16]: 30; Plant response rating, Barnyardgrass [7, 17]: 40; Plant response rating, Barnyardgrass [7, 18]: 40; Plant response rating, Barnyardgrass [7, 19]: 5; Plant response rating, Barnyardgrass [7, 20]: 10; Plant response rating, Barnyardgrass [7, 21]: 60; Barnyardgrass plant response rating [7, 22]: 95; Barnyardgrass plant response rating [7, 23]: 35; Plant response rating, Blackgrass [8, 14]: 20; Plant response rating, Blackgrass [8, 15]: 60; Plant response rating, Galium [9, 14]: 90; Plant response rating, Galium [9, 15]: 100
